Results reported in patent US10980900B2, “Imaging of meningiomas using phenylbenzothiazole, stilbene, or biphenylalkyne derivatives” (MAYO FOUNDATION FOR MEDICAL EDUCATION AND RESEARCH, priority 2010, dated 2021).
Entries after “also recorded” stand apart in the source; their conditions may differ. Values belong to the molecule of their own block, whether it stands above or below them.

Experiments:
[1] = system: meningioma tissue sections; test: Fluorescent PiB / 6-CN-PiB staining of meningioma tissue sections; format: binding, human
Excerpt: (§1) The Department of Pathology, Mayo Clinic Rochester Tumor Tissue Registry, contains tumor samples procured by autopsy and surgery. Meningiomas, brain metastases and other tumors were identified by searching CoPath, a Mayo Clinic electronic pathology database of tumors collected since 1982. Tumor type was confirmed by viewing H&E stained slides under a light microscope.
Fresh cut 5 μm thick sections were used. Each staining run included normal brain and Alzheimer diseased brain as controls. Fluorescent tissue staining and microscopy was performed similar to methods previously described at Ikonomovic M D, Klunk W E, Abrahamson E E, et al., “Post-mortem correlates of in vivo PiB-PET amyloid imaging in a typical case of Alzheimer's disease”, Brain: A Journal Of Neurology 2008; 131:1630-45. Meningioma and other brain tumor sections were stained with 100 nM CN-PiB, 100 nM of unlabeled PiB or with saline alone as a negative control. The staining protocol was as follows: deparaffinization and rehydration, 0.25% KMnO4 incubation, water wash, 1% K2S2O5/1% Oxalic Acid incubation, water wash, PBS wash, 6-CN-PiB/PiB/saline incubation, PBS wash, NaCl, K2HPO4, and KH2PO4 incubation, water wash, mount coverslip, and storage at 4° C. in the dark until imaged. Slides were imaged within five days of staining.
Tissue stain images were obtained on a Zeiss 510 confocal microscope with excitation at 405 nm, a 420-480 bandpass filter, and the laser set at 15% power. Images were obtained with a C-Apochromat 40×/1.2 W lens.

[2] = PiB PET/CT activity in normal tissues near the tumors; format: in vivo, human
Excerpt: (§2) The radiologic interpretations of MRI, CT and FDG PET/CT scans from a population of 834 people who participated in the population-based Mayo Clinic Study of Aging (MCSA) from March 2006 through September 2011 were reviewed for the presence of tumors or other brain lesions. (See, Kantarci K, Lowe V, Przybelski S A, et al., “Magnetic resonance spectroscopy, {beta}-amyloid load, and cognition in a population-based sample of cognitively normal older adults”, Neurology 2011; 77:951-8; and Roberts R O, Geda Y E, Knopman D S, et al., “The Mayo Clinic Study of Aging: design and sampling, participation, baseline measures and sample characteristics”, Neuroepidemiology 2008; 30:58-69.) Participants were randomly selected for recruitment in the MCSA from a population of older adult residents of Olmsted County, Minn., USA. Those with neurological, psychological or systemic illnesses were not excluded. Individuals with dementia, or those unable to be imaged for medical reasons were excluded. All patients were imaged with C11-PiB PET/CT, F18-FDG PET/CT and non-contrast MRI at least once as part of the study. Any additional patient imaging and clinical history was then reviewed.
PET imaging was performed as part of the Mayo Clinic Study of Aging as previously described. (See Kantarci K, Lowe V, Przybelski S A, et al., “Magnetic resonance spectroscopy, {beta}-amyloid load, and cognition in a population-based sample of cognitively normal older adults”, Neurology 2011; 77:951-8.) PiB PET/CT, then FDG PET/CT were performed on the same day. PET/CT imaging was performed on a 690XT or DRX PET/CT tomograph (GE Healthcare). The PET sinograms were reconstructed using a fully-3D OSEM algorithm into a 30 cm field of view; the pixel size was 1.2 mm and the slice thickness was 3.27 mm (DRX) or 1.96 mm (690XT). CT imaging was obtained immediately prior to PET acquisition and used for attenuation correction. Cerebral PiB retention, a marker of amyloid deposition, was measured as previously described. […]

meningiomas [3] = test: PiB PET/CT imaging of meningiomas in patients; format: in vivo, human
Excerpt: (§3) An Alzheimer's imaging database of two hundred forty-one patients was reviewed. […] All patients had been imaged by at least one MRI, as well as by FDG-PET/CT and PET/CT using the compound of formula (V). MRI reports of all patients were reviewed for possible meningiomas and other tumors. […] The diagnostic confidence of the radiologists interpreting the studies varied slightly, depending on factors such as tumor location and previous imaging. […] Tumors smaller than 7 millimeters are generally considered too small to be evaluated by PET or PET/CT. This is an excepted limitation of PET or PET/CT as a modality. […] None of the meningiomas in the series would be classified as atypical or aggressive based on MRI or CT imaging. One presumed extracranial schwannoma was seen, showing mild uptake on FDG-PET/CT, but no uptake on PET/CT using the compound of formula (V).
as §2
Tumors found in any of the subjects were then categorized as possible meningiomas or non-meningiomas based on the reading of the reporting neuroradiologist. Possible meningiomas were further reviewed as a group. A more strict set of criteria were applied to select a subset of the possible meningiomas that were designated “high-likelihood meningiomas” for further analysis and were defined by (1) tumors that were confirmed to be enhancing on diagnostic MRI (obtained separately for clinical purposes) and (2) tumors that had greater than two years of follow-up imaging confirming no growth or slow growth (1-2 mm per year). When the lead diagnosis of the identified tumor was metastasis, the diagnosis was confirmed by biopsy or autopsy. All tumors smaller than 5 mm thick were excluded, given they fall below the generally accepted lower limits of PET/CT resolution.
PET imaging was performed as part of the Mayo Clinic Study of Aging as previously described. (See Kantarci K, Lowe V, Przybelski S A, et al., “Magnetic resonance spectroscopy, {beta}-amyloid load, and cognition in a population-based sample of cognitively normal older adults”, Neurology 2011; 77:951-8.) PiB PET/CT, then FDG PET/CT were performed on the same day. PET/CT imaging was performed on a 690XT or DRX PET/CT tomograph (GE Healthcare). The PET sinograms were reconstructed using a fully-3D OSEM algorithm into a 30 cm field of view; the pixel size was 1.2 mm and the slice thickness was 3.27 mm (DRX) or 1.96 mm (690XT). CT imaging was obtained immediately prior to PET acquisition and used for attenuation correction. Cerebral PiB retention, a marker of amyloid deposition, was measured as previously described. (See Kantarci K, Lowe V, Przybelski S A, et al. “Magnetic resonance spectroscopy, {beta}-amyloid load, and cognition in a population-based sample of cognitively normal older adults”, Neurology 2011; 77:951-8.) […]

[4] = system: non-meningioma tumors and lesions; test: PiB PET/CT imaging of non-meningioma tumors and lesions in patients; format: in vivo, human
Excerpt: as §3, §2
Tumors found in any of the subjects were then categorized as possible meningiomas or non-meningiomas based on the reading of the reporting neuroradiologist. Possible meningiomas were further reviewed as a group. […]
PET imaging was performed as part of the Mayo Clinic Study of Aging as previously described. […] Cerebral PiB retention, a marker of amyloid deposition, was measured as previously described. […]

non-meningioma tumors = test: FDG PET/CT imaging of non-meningioma tumors in patients; format: in vivo, human
Excerpt: (§4) An Alzheimer's imaging database of two hundred forty-one patients was reviewed. […] MRI reports of all patients were reviewed for possible meningiomas and other tumors. […] Tumors smaller than 7 millimeters are generally considered too small to be evaluated by PET or PET/CT.
as §2
(§5) PET imaging was performed as part of the Mayo Clinic Study of Aging as previously described. (See Kantarci K, Lowe V, Przybelski S A, et al., “Magnetic resonance spectroscopy, {beta}-amyloid load, and cognition in a population-based sample of cognitively normal older adults”, Neurology 2011; 77:951-8.) PiB PET/CT, then FDG PET/CT were performed on the same day. PET/CT imaging was performed on a 690XT or DRX PET/CT tomograph (GE Healthcare). […] Cerebral PiB retention, a marker of amyloid deposition, was measured as previously described. […]

meningiomas [5] = test: FDG PET/CT imaging of meningiomas in patients; format: in vivo, human
Excerpt: as §4, §2, §5

[6] = system: other intracranial tumors (schwannoma, metastasis) tissue sections; test: Fluorescent 6-CN-PiB staining of other intracranial tumor tissue sections; format: binding, human; conditions: some other tumors, different staining pattern
Excerpt: as §1
Fresh cut 5 μm thick sections were used. Each staining run included normal brain and Alzheimer diseased brain as controls. Fluorescent tissue staining and microscopy was performed similar to methods previously described at Ikonomovic M D, Klunk W E, Abrahamson E E, et al., “Post-mortem correlates of in vivo PiB-PET amyloid imaging in a typical case of Alzheimer's disease”, Brain: A Journal Of Neurology 2008; 131:1630-45. Meningioma and other brain tumor sections were stained with 100 nM CN-PiB, 100 nM of unlabeled PiB or with saline alone as a negative control. The staining protocol was as follows: deparaffinization and rehydration, 0.25% KMnO4 incubation, water wash, 1% K2S2O5/1% Oxalic Acid incubation, water wash, PBS wash, 6-CN-PiB/PiB/saline incubation, PBS wash, NaCl, K2HPO4, and KH2PO4 incubation, water wash, mount coverslip, and storage at 4° C. in the dark until imaged. Slides were imaged within five days of staining. […]

[7] = meningiomas 5 mm and thicker vs all other tumors in the 834 patient population

Molecule: [11CH3]Nc1ccc(-c2nc3ccc(O)cc3s2)cc1 [Formula (V), [N-Methyl-^11C]2-(4′-methylaminophenyl)-6-hydroxybenzothiazole]
staining of tissue sections ([1]; tissue sections from meningiomas, 100 nM unlabeled PiB): brightly positive
average PiB activity, SUVmax ([2]; nearby normal bone): 0.6
average PiB activity, SUVmax ([2]; nearby normal grey matter): 1.1
average background PiB activity, SUVmax ([2]; surrounding cerebrospinal fluid): 0.2
SUVmax (by body weight), range (meningiomas [3]; 16 high-likelihood meningiomas, PiB PET/CT): 1.4-3.6
result on repeat PET/CT imaging (meningiomas [3]; Example 3: one patient imaged two times, many months in between): same positive results
activity at the meningioma on PET and CT images (meningiomas [3]; Patient #1, mass along right tentorium cerebelli (FIG. 1)): intense activity
activity at the meningioma on PET and CT images (meningiomas [3]; Patient #4, mass along tuberculum sellae and planum sphenoidale (FIG. 2)): intense activity
result on PiB PET/CT imaging (meningiomas [3]; all 16 high-likelihood meningiomas): clearly diagnostically positive
PiB activity relative to normal adjacent tissues (meningiomas [3]; all 16 meningiomas identified by strict imaging criteria): greater than normal adjacent tissues
sensitivity of PiB PET/CT for meningiomas (meningiomas [3]; [7]): 100%
specificity of PiB PET/CT for meningiomas (meningiomas [3]; [7]): 100%
SUVmax of meningioma on repeat imaging (meningiomas [3]; two patients imaged with PiB PET/CT more than once): stable or increasing
PiB activity relative to normal adjacent tissue ([4]; all other intracranial tumors imaged (metastases, pituitary macroadenomas, schwannomas, ependymoma)): equal or less than normal adjacent tissue
result on PiB PET/CT ([4]; both intracranial metastases (FIG. 4), pathologically confirmed): negative
result on research PiB PET/CT ([4]; melanoma metastasis case): negative
PiB activity ([4]; non-tumorous lesions (strokes, arachnoid cysts, multiple sclerosis lesions)): only trace

Molecule: Fluorodeoxyglucose [FDG]
FDG PET activity (non-meningioma tumors; melanoma and small cell lung cancer metastases (FIG. 4)): increased
result on FDG PET/CT (non-meningioma tumors; melanoma metastasis case, initial imaging): positive
result on FDG PET/CT (non-meningioma tumors; pituitary macroadenoma (FIG. 5 Panel B)): positive
FDG activity (meningiomas [5]; 2.6 cm thick meningioma of right tentorium (FIG. 3)): only trace
FDG PET activity (meningiomas [5]; meningioma in FIG. 4 panels G-I): increased
FDG activity (meningiomas [5]; seven of the 16 high-likelihood meningiomas): moderate to high

6-CN-PiB binding [6]: Moderate
Molecule: CNc1ccc(-c2nc3ccc(C#N)cc3s2)cc1 [Formula 6-CN-PiB]
fluorescent staining ([1]; WHO grade I meningothelial meningioma (FIG. 6 Panel D), 100 nM): positively; also recorded: intense fluorescence
staining brightness vs other intracranial tumors ([1]; all meningiomas (n=7) vs other intracranial tumors (n=6)): qualitatively brighter
